system: Plasmodium falciparum; assay: OSM: Erythrocyte assay. NF54 with 3H-Hypoxanthine at 72hr time point.; format: functional, organism-based

SMILES	EC50 [nM]
COc1ccc2ccc(Oc3cncc4nnc(-c5ccc(OC(F)F)cc5)n34)cc2n1	1670
FC(F)Oc1ccc(-c2nnc3cncc(OCc4cccc5ccccc45)n23)cc1	1670
FC(F)Oc1ccc(-c2nnc3cncc(Oc4cccc(Oc5ccccn5)c4)n23)cc1	6040
FC(F)Oc1ccc(-c2nnc3cncc(Oc4ccc5nc(C(F)(F)F)ncc5c4)n23)cc1	2020
FC(F)Oc1ccc(-c2nnc3cncc(Oc4ccc5ccsc5c4)n23)cc1	576
Fc1ccc(CCOc2ccc3nnc(-c4ccc(OC(F)F)cc4)n3n2)cc1F	6780
Fc1ccc(CCNc2ccc3nnc(-c4ccc(OC(F)F)cc4)n3n2)cc1	510
O=C(Cc1cccc(Cl)c1)Nc1cn2c(-c3ccc(OC(F)F)cc3)nnc2cn1	10000
N#Cc1ccc(-c2nnc3ccc(NCCc4cccnc4)nn23)cc1	10000

Results, then the compound that gave them:

EC50 [nM]	SMILES
731	Fc1ccc([C@@H]2[C@@H](Oc3cncc4nnc(-c5ccc(OC(F)F)cc5)n34)CN2C2CC2)cc1F
101	CC(O)(COc1cncc2nnc(-c3ccc(OC(F)F)cc3)n12)c1ccc(F)c(F)c1 (stereo unspecified)
1460	FC(F)Oc1ccc(-c2nnc3cncc(OCC4CCc5cc(Cl)ccc54)n23)cc1 (stereo unspecified)
123	CC(F)(COc1cncc2nnc(-c3ccc(OC(F)F)cc3)n12)c1ccc(F)c(F)c1 (stereo unspecified)
65.4	Fc1ccc(C(F)COc2cncc3nnc(-c4ccc(OC(F)F)cc4)n23)cc1F (stereo unspecified)
839	Fc1cc2ccc(Oc3cncc4nnc(-c5ccc(OC(F)F)cc5)n34)cc2cc1F
173	Fc1cc(F)c2ccc(Oc3cncc4nnc(-c5ccc(OC(F)F)cc5)n34)cc2c1
